Measurements taken from ChEMBL document CHEMBL4028801, “A multifactorial approach to hepatobiliary transporter assessment enables improved therapeutic compound development” (Toxicol Sci, 2013).
Structures can show the parent of a compound that is named as a salt.

Key:
Bile salt export pump = Bile salt export pump (Homo sapiens, UniProt O95342); test: Inhibition of human BSEP overexpressed in Sf9 cell membrane vesicles assessed as uptake of [3H]-taurocholate in presence of ATP measured after 15 to 20 mins by membrane vesicle transport assay; assay type: ADME, cell-based
[1] = biological target: ATP-binding cassette sub-family C member 2 (Homo sapiens, UniProt Q92887); test: Inhibition of human MRP2 overexpressed in Sf9 cell membrane vesicles assessed as uptake of [3H]-estradiol-17beta-D-glucuronide in presence of ATP and GSH measured after 20 mins by membrane vesicle transport assay
[2] = biological target: ATP-binding cassette sub-family C member 3 (Homo sapiens, UniProt O15438); test: Inhibition of human MRP3 overexpressed in Sf9 insect cell membrane vesicles assessed as uptake of [3H]-estradiol-17beta-D-glucuronide in presence of ATP and GSH measured after 10 mins by membrane vesicle transport assay; assay type: ADME, cell-based
[3] = biological target: T1, ATP-binding cassette sub-family C member 4 (Homo sapiens, UniProt O15439); test: Inhibition of human MRP4 overexpressed in Sf9 cell membrane vesicles assessed as uptake of [3H]-estradiol-17beta-D-glucuronide in presence of ATP and GSH measured after 20 mins by membrane vesicle transport assay; assay type: ADME, cell-based
T1 sequence (O15439 whole entry): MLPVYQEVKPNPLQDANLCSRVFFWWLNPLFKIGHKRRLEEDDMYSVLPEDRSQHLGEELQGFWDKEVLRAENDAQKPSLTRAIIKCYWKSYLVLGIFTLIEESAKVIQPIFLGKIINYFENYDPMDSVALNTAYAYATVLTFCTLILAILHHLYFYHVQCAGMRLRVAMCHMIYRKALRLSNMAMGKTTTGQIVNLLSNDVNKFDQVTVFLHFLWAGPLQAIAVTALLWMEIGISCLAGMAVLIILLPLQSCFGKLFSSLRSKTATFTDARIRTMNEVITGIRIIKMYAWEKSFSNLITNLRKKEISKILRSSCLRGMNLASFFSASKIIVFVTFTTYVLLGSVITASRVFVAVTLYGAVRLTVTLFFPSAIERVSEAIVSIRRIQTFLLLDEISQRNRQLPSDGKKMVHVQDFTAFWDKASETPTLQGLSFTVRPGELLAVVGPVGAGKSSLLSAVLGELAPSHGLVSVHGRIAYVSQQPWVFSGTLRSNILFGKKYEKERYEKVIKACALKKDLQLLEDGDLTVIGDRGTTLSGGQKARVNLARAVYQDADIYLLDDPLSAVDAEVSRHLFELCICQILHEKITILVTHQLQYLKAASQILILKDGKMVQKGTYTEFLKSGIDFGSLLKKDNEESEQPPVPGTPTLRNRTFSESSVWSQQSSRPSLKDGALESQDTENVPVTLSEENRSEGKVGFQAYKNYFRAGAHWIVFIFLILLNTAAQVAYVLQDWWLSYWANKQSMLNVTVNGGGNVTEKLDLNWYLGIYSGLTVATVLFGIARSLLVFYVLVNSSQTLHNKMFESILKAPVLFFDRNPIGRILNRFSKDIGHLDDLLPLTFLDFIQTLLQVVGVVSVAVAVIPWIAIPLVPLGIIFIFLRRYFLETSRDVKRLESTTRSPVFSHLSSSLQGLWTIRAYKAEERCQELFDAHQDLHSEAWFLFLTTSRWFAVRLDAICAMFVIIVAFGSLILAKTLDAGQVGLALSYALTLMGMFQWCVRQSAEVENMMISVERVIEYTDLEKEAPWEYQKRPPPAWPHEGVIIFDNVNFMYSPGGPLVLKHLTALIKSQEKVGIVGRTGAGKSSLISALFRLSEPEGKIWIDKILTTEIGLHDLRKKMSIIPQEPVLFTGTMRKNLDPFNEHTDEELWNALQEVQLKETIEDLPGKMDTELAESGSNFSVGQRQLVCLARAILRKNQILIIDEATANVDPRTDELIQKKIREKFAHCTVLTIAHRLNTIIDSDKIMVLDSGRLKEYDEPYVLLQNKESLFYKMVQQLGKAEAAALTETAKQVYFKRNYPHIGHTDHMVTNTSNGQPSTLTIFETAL

Sequence of Bile salt export pump (O95342 whole entry): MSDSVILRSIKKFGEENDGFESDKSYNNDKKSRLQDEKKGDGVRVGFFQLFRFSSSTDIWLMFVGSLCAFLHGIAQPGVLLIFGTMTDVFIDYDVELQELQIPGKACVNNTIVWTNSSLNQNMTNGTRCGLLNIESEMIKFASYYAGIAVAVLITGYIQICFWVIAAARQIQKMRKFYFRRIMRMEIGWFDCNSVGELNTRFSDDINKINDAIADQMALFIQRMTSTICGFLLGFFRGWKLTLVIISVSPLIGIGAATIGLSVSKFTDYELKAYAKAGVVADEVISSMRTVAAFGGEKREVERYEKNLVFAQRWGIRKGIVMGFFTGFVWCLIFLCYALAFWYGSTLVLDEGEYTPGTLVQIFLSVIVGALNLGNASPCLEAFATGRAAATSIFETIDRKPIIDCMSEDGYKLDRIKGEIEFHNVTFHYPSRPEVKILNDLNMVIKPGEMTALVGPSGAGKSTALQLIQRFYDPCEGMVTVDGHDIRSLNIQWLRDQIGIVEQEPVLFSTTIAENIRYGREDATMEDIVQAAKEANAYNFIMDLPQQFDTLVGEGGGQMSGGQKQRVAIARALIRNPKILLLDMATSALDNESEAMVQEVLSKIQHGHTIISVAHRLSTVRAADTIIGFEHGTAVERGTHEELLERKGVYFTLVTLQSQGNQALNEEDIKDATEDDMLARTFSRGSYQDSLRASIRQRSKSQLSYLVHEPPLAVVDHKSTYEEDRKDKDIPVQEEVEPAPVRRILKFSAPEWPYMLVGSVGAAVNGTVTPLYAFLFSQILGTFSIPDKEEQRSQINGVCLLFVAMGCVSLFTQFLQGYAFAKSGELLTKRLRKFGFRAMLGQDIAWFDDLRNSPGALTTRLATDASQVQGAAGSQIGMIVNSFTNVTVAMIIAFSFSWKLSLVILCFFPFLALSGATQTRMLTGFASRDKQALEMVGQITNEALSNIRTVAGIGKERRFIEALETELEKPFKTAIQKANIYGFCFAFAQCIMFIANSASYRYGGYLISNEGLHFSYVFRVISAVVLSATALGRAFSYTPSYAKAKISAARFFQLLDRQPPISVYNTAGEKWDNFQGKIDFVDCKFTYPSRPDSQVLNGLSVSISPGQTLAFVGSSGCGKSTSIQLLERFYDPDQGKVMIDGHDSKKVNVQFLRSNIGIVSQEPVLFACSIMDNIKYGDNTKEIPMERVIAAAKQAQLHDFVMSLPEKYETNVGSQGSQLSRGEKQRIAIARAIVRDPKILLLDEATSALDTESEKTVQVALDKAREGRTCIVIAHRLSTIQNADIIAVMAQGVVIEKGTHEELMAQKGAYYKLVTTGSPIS
Sequence of ATP-binding cassette sub-family C member 3 (O15438 whole entry): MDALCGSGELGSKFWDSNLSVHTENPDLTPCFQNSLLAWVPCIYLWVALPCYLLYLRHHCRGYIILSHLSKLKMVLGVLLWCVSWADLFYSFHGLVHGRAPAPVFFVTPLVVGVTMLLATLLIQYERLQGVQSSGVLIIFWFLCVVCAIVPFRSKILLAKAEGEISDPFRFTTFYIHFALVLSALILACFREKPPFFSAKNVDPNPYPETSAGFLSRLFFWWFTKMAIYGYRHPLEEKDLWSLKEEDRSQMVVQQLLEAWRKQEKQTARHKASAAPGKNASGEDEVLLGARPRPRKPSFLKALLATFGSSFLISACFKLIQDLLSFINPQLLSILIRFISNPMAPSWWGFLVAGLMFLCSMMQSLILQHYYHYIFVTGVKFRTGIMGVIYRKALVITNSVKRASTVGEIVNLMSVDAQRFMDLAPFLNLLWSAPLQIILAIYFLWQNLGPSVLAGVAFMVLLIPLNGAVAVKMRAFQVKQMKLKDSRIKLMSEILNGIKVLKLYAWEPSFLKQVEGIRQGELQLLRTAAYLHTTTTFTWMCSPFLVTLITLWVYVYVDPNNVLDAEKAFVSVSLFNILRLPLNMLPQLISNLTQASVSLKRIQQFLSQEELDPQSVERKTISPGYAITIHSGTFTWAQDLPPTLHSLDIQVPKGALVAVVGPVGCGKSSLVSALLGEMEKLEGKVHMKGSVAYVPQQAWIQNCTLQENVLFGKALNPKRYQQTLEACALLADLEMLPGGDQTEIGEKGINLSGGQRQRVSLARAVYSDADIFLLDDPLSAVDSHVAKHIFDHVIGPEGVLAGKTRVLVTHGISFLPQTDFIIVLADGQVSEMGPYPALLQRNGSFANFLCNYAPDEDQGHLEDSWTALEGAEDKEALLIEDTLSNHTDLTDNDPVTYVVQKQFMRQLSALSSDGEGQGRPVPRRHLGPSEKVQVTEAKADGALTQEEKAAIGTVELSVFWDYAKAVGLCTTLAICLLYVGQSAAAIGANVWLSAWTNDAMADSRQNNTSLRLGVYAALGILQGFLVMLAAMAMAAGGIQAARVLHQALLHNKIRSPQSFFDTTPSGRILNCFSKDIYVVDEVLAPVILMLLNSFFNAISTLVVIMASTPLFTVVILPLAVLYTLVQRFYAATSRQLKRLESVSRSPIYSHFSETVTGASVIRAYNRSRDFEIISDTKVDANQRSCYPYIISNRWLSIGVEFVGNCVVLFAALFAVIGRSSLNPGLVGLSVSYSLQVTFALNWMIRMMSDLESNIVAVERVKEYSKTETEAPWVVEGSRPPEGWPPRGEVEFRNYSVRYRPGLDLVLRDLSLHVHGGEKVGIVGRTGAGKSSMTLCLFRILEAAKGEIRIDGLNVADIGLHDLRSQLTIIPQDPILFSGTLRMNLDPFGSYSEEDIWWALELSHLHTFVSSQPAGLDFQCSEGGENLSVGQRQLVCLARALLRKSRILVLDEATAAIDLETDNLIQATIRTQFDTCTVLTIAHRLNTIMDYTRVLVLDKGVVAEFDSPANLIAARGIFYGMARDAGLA
Sequence of ATP-binding cassette sub-family C member 2 (Q92887 whole entry): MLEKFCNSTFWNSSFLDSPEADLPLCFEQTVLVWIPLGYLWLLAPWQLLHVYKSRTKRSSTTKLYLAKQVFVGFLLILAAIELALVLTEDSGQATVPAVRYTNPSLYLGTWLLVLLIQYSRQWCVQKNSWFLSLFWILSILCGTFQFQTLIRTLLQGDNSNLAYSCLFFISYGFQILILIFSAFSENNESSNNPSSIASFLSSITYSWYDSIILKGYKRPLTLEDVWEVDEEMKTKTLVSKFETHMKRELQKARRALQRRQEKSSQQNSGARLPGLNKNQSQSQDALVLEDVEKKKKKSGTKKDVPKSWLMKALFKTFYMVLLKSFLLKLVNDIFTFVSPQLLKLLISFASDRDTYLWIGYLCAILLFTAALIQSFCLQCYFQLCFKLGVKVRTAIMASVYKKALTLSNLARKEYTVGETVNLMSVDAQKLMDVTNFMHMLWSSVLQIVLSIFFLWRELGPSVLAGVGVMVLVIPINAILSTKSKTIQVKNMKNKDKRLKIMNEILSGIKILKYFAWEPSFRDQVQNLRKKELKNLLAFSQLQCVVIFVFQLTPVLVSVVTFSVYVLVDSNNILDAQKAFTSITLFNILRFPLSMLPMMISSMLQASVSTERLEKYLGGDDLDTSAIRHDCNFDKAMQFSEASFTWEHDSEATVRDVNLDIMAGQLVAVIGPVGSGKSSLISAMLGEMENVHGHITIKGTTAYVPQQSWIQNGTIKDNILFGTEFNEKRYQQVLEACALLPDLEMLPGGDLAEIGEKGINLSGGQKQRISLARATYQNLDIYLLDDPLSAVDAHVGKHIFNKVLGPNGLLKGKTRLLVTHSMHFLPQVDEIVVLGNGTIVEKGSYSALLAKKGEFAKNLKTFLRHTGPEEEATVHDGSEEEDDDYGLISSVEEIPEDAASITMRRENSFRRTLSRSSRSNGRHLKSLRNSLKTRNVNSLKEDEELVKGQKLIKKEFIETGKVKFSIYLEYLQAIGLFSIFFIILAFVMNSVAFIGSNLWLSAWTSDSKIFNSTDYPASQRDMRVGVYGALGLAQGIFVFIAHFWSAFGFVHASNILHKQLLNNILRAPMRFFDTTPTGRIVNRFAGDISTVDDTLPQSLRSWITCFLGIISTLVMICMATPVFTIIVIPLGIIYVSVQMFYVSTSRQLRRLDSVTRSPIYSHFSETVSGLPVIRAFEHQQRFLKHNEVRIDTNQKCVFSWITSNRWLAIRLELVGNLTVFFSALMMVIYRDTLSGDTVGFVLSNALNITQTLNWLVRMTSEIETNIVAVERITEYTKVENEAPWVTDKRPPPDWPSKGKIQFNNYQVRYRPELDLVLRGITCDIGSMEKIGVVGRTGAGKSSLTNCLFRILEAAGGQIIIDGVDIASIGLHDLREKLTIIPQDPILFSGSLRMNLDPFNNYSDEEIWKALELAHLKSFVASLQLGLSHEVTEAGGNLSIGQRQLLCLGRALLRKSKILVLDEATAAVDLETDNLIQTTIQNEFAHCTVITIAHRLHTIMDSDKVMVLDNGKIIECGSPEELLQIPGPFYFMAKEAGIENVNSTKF

| SMILES | IC50 (Bile salt export pump) | IC50 [1] | IC50 [2] | IC50 [3] |
| --- | --- | --- | --- | --- |
| CNCCCN1c2ccccc2CCc2ccccc21 [DESIPRAMINE] | > 133 µM | > 133 µM | > 133 µM | > 133 µM |
| CC1Cc2ccccc2N1NC(=O)c1ccc(Cl)c(S(N)(=O)=O)c1 (stereo not given) [INDAPAMIDE] | > 133 µM | > 133 µM | > 133 µM | > 133 µM |
| C=C1C[C@@H]2[C@H](CC[C@]3(C)C(=O)CC[C@@H]23)[C@@]2(C)C=CC(=O)C=C12 [EXEMESTANE] | 90 µM | > 133 µM | > 133 µM | > 133 µM |
| CCN1CCN(C(=O)N[C@@H](C(=O)N[C@@H]2C(=O)N3[C@@H]2SC(C)(C)[C@@H]3C(=O)O)c2ccccc2)C(=O)C1=O [PIPERACILLIN SODIUM] | > 133 µM | > 133 µM | > 133 µM | > 133 µM |
| CC(=O)CC(c1ccccc1)c1c(O)c2ccccc2oc1=O (stereo not given) [WARFARIN SODIUM] | > 133 µM | > 133 µM | > 133 µM | > 133 µM |
| Cc1ccc(-c2cc(C(F)(F)F)nn2-c2ccc(S(N)(=O)=O)cc2)cc1 [CELECOXIB] | > 133 µM | > 133 µM | > 133 µM | > 133 µM |
| CCOC(=O)[C@H](CCc1ccccc1)N[C@@H](C)C(=O)N1CCC[C@H]1C(=O)O [ENALAPRIL MALEATE] | > 133 µM | > 133 µM | > 133 µM | > 133 µM |
| CC1COc2c(N3CCN(C)CC3)c(F)cc3c(=O)c(C(=O)O)cn1c23 (stereo not given) [OFLOXACIN] | > 133 µM | > 133 µM | > 133 µM | > 133 µM |
| Nc1nc(Cl)nc2c1ncn2[C@H]1C[C@H](O)[C@@H](CO)O1 [CLADRIBINE] | > 133 µM | > 133 µM | > 133 µM | > 133 µM |
| CCOC(=O)c1ccc(C#Cc2ccc3c(c2)C(C)(C)CCS3)nc1 [TAZAROTENE] | > 133 µM | > 133 µM | > 133 µM | > 133 µM |
| C[C@H]1C[C@@H]2[C@H]([C@@H](O)C[C@@]3(C)[C@H]2CC[C@]3(O)C(=O)CO)[C@@]2(C)C=CC(=O)C=C12 [METHYLPREDNISOLONE] | > 133 µM | > 133 µM | > 133 µM | 41 µM |
| CO/N=C(\C(=O)N[C@@H]1C(=O)N2C(C(=O)OC(C)OC(C)=O)=C(COC(N)=O)CS[C@H]12)c1ccco1 (stereo not given in full) [CEFUROXIME AXETIL] | > 133 µM | > 133 µM | > 133 µM | 28 µM |
| C=CCN1CC[C@]23c4c5ccc(O)c4O[C@H]2C(=O)CC[C@@]3(O)[C@H]1C5 [NALOXONE] | > 133 µM | > 133 µM | > 133 µM | > 133 µM |
| Cc1cn([C@H]2C=C[C@@H](CO)O2)c(=O)[nH]c1=O [STAVUDINE] | > 133 µM | > 133 µM | > 133 µM | > 133 µM |
| CC(C)OC(=O)CCC/C=C\C[C@@H]1[C@@H](/C=C/[C@@H](O)COc2cccc(C(F)(F)F)c2)[C@H](O)C[C@@H]1O [TRAVOPROST] | 43.9 µM | > 133 µM | > 133 µM | 74 µM |
| CNNCc1ccc(C(=O)NC(C)C)cc1 [PROCARBAZINE HYDROCHLORIDE] | > 133 µM | > 133 µM | > 133 µM | > 133 µM |
| O=C1CCc2cc(OCCCCc3nnnn3C3CCCCC3)ccc2N1 [CILOSTAZOL] | > 133 µM | > 133 µM | > 133 µM | 16.6 µM |
| CC(=O)N(CC(O)CO)c1c(I)c(C(=O)NCC(O)CO)c(I)c(C(=O)NCC(O)CO)c1I (stereo not given) [IOHEXOL] | > 133 µM | > 133 µM | > 133 µM | > 133 µM |
| COc1ccccc1N1CCN(CCCNc2cc(=O)n(C)c(=O)n2C)CC1 | > 133 µM | > 133 µM | > 133 µM | > 133 µM |
| O=S(=O)(O)CCS [MESNA] | > 133 µM | > 133 µM | > 133 µM | > 133 µM |
